Legend:
[1] = tested on: NF-κB binding to the scn5a promoter; assay: Electrophoretic mobility shift assay with H9c2 nuclear extracts; format: cell-based, rat; details: for effect of NF-κB inhibitor on NF-κB binding to scn5a promoter probe: CAPE 10 μM, H9c2, H2O2
Excerpt: Approximately 5×10^6 cells were scraped for nuclear protein extraction by nuclear extract kit (Activemotif, Carlsbad, Calif.). A double-stranded oligonucleotide containing the consensus-binding sequence (bold) for […] ID NO. 657)) and NF-κB mutant sequence ([NT] ID NO. 658)) from scn5a promoter were used as probes to assay for binding activity of the nuclear extracts. Protein-DNA complexes were detected using biotin end-labeled double-stranded DNA probes prepared by annealing complementary oligonucleotides. Oligonucleotides were labeled in a reaction using terminal deoxynucleotide transferase and biotin-N4-CTP (Pierce, Rockford, Ill.) following the biotin 3' end DNA labeling kit manual. The binding reaction was performed using the LightShift kit (Pierce). […] Following electrophoresis, the DNA-protein complexes were transferred onto nylon membranes and detected using chemiluminescence. TNF-α activated H9c2 cell nuclear extract (5 μg) was used as positive control. The reaction products were separated on a 6% retardation gel.

[2] = tested on: NF-κB subunits p50 and p65 on the scn5a promoter; assay: Chromatin immunoprecipitation (ChIP) assay in H9c2 cells; format: cell-based, rat
Experimental: Formaldehyde cross-linking and chromatin immunoprecipitation was performed as described in manufactory's manual (ChIP-IT™ kit, Activemotif). Briefly, proteins were crosslinked with chromatin using 1% formaldehyde in H9c2 cells with or without treatment. The cells were subsequently sonicated in lysis buffer, and an aliquot of the lysate was used in a PCR reaction. The remaining lysate was cleared with protein G beads. One half of the cleared lysate was incubated with p50 or p65 antibody, while the other half was used as a negative control without the antibody. After reversing the cross-linking, the immuno-complex was digested with proteinase K, and the DNA was purified. DNA was analyzed by PCR with the PicoMax Polymerase (Stratagene, La Jolla, Calif.) and primers specific to the APS3 promoter region.

[3] = tested on: cardiac sodium channel (scn5a) mRNA; assay: scn5a mRNA abundance by quantitative real-time RT-PCR in H9c2 cells; format: cell-based, rat
Excerpt: (§1) The rat embryonic cardiomyocyte cell line, H9c2 (ATCC cat #CRL-1446), or acutely isolated neonatal rat heart cardiomyocytes were used. Rat neonatal ventricular cells were isolated from 3-day-old Sprague-Dawley rats (Charles River Laboratories Wilmington, Mass.) using a kit and following the manufacturer's instructions (Worthington Biochemical Corp. Lakewood, N.J.). Cells cultured in Dulbecco's modified Eagle's medium (DMEM; ATCC, Manassas, Va.) with 10% fetal calf serum (ATCC) under standard tissue culture conditions at 37° C. to 70-80% confluence were exposed to AngII (Sigma, St. Louis, Mo.) or H2O2 (Sigma) in serum free culture medium (SFM) for a total of 48 h in triplicate in 24 well plates. Experiments were repeated three times. After dissociation with 0.125% trypsin-EDTA, 20 μL of 0.4% Trypan-blue (Sigma, St. Louis, Mo.) was added to each well, and a Trypan-blue exclusion viability assay was performed. The use of rats conforms with the Guide for the Care and Use of Laboratory Animals published by the US National Institutes of Health (NIH Publication No. 85-23, revised 1996).
(§2) To determine the abundance of cardiac sodium channel (scn5a) mRNA under the various conditions, quantitative real-time RT-PCR was used. […] PCR products were analyzed by relative standard curve methods β-Actin was used as a reference when making quantitative comparison.

[4] = tested on: cardiac sodium channel (scn5a) mRNA; assay: scn5a mRNA abundance by quantitative real-time RT-PCR in neonatal cardiomyocytes; format: cell-based, rat
Excerpt: as §1, §2

H9c2 cardiomyocytes = assay: Trypan-blue exclusion cell viability assay; format: cell-based
Experimental: To determine appropriate concentrations of these agents in future experiments, rat H9c2 cardiomyocytes were treated with escalating concentrations of AngII and H2O2, and the dose-dependent cell viability was determined. H9c2 cardiomyocytes were tolerant of a wide range of AngII concentrations from 1-500 nM in serum free medium (FIG. 14A). On the other hand, higher doses of H2O2 induced cell death starting at concentrations of 50 μM (FIG. 14B). […] Exposures of 48 h were used to allow sufficient time for transcriptional effects on the Na^+ current.
as §1, with “After dissociation with 0.125% trypsin-EDTA, 20 μL of 0.4% Trypan-blue (Sigma, St. Louis, Mo.) was added to each well, and a Trypan-blue exclusion viability assay was performed. The use of rats conforms with the Guide for the Care and Use of Laboratory Animals published by the US National Institutes of Health (NIH Publication No. 85-23, revised 1996).” left out

[5] = tested on: cardiac Na+ channel current; assay: Whole-cell patch-clamp Na+ current in H9c2 cells; format: cell-based, rat; details: H9c2, 20 μM H2O2 for 48 h, voltage step to −10 mV
Experimental: Three hours prior to the start of the patch-clamp experiments, H9c2 cells were trypsinized and plated on treated plastic coverslips. H9c2 cells were treated with or without H2O2 as indicated. Glass pipettes were pulled on a Sutter Model P-97 horizontal puller to a resistance of 0.5 to 1.5 MΩ. The glass pipettes were filled with a solution of (in mM) CsCl 60, Cesium Aspartate 80, EGTA sodium 11, HEPES 10, Na2ATP 5 and pH 7.2 with CsOH. The bath solution consisted of (in mM) Na 30, […] chloride 100, CsCl 5, CaCl2 2, MgCl2 1.2, HEPES 10, Glucose 5 and pH 7.4 with NaOH. Once a seal was established, a small amount of suction was applied to obtain the whole cell configuration. From a holding potential of −100 mV, peak currents obtained at −10 mV were used for comparison. Cells were tested at 25° C. Data were sampled at 10 kHz and later filtered at 5 kHz for analysis. Currents were recorded and analyzed with an Axopatch 200B amplifier, Axon Digidata 1230A A/D converter and pClamp software (Molecular Devices Corporation, Sunnyvale, Calif.).

scn5a promoter = assay: scn5a promoter-reporter (dual luciferase) assay in H9c2 cells; format: cell-based, rat
Experimental: The scn5a promoter region has previously been defined (Shang, L. L. & Dudley, S. C., Jr. (2005) J. Biol. Chem. 280, 933-940). For these experiments, a new promoter construct that contained the NF-κB consensus binding site was used to test the effect of treatments on scn5a transcription. This construct, pGL3-APS3, consisted of a 937 bp fragment starting from exon 1C to +32 base pairs relative to the start codon located on exon 2 of mouse scn5a gene.
H9c2 cardiomyocytes were plated in each well of 24-well plates at a density of 2.5×10^4 cells in a final volume of 1 mL of culture medium, allowed to attach overnight, and expand to 70%-80% confluence. Transfection of 0.3 μg of the promoter-reporter construct and 0.013 μg of a plasmid containing the herpes simplex virus thymidine kinase (HSV-TK) promoter driving expression of a synthetic Renilla luciferase (phRL-TK; Promega, Madison, […].) was carried out with 0.9 μL of Fugene6 chemical transfection reagents (Roche, Indianapolis, Ind.) following the manufacturer's instructions. […] Light emission was quantified in a Veritas microplate luminometer using Veritas-version 1.4.0 software (Tuener Biosystems, Sunnyvale, Calif.). […] Four separate transfection sessions were analyzed, and at each session, transfections were performed in triplicate. Three dual luciferase readings were taken for each transfection experiment. […]

O=C(/C=C/c1ccc(O)c(O)c1)OCCc1ccccc1 [CAPE, caffeic acid phenethyl ester]
effect of NF-κB inhibitor on NF-κB binding to scn5a promoter probe [1]: prevented binding in response to H2O2
effect of NF-κB inhibitor on NF-κB binding to scn5a promoter probe ([1]; listed as caffeic acid phenethyl ester): blocked
effect of NF-κB inhibitor on binding of p50 and p65 to the channel promoter ([2]; H9c2, CAPE): could prevent biding of both subunits

catalase
effect of catalase on AngII-mediated downregulation of Na+ channel mRNA ([3]; H9c2, AngII 100 nM and PEG-catalase 250 U/mL, 48 h): prevented
effect of catalase on AngII-mediated downregulation of Na+ channel mRNA ([4]; neonatal cardiomyocytes, AngII 2 nM and PEG-catalase 250 U/mL, 48 h): prevented

OO [H2O2]
cell death at 20 μM H2O2 (H9c2 cardiomyocytes; 20 μM H2O2, 48 h): no statistically significant increase in cell death
H2O2 concentration at which cell death starts (H9c2 cardiomyocytes; 48 h): ≥ 50 µM
reduction in Na+ channel mRNA ([3]; H9c2 cells, 20 μmol/L H2O2, 48 h): 46.9%
reduction in Na+ channel mRNA ([4]; isolated neonatal rat myocytes, 40 nM H2O2, 48 h): 45.4%
decrease in peak Na+ current [5]: 46%
change in promoter activity of construct with mutated NF-κB binding site (scn5a promoter; APS3-NF-κBm, H9c2, AngII or H2O2): no significant change in activity
depression of scn5a Na+ channel promoter activity (scn5a promoter; APS3 construct with intact NF-κB site, H9c2, 20 μM H2O2, 48 h): 42.3%
NF-κB binding activity to scn5a promoter probe ([1]; H9c2 nuclear extracts, 48 h AngII or H2O2): increased
NF-κB subunit binding on the cardiac Na+ channel promoter ([2]; H9c2, AngII or H2O2 treatment): formation of the complete p50-p65 NF-κB heterodimer
